Literature values in US6576617B2, “Direct action anti-mycotic” (International Fiber Corporation, priority 1999, dated 2003).

Tests used:
[1] = test system: mold, yeast, and fungal growth; settings: agar medium
[2] = test system: mold, yeast, or fungus growth; settings: non-liquid foods for human consumption; conventional natamycin

For `C[C@@H]1C/C=C/C=C/C=C/C=C/[C@H](O[C@@H]2O[C@H](C)[C@@H](O)[C@H](N)[C@@H]2O)C[C@@H]2O[C@](O)(C[C@@H](O)C[C@H]3O[C@@H]3/C=C/C(=O)O1)C[C@H](O)[C@H]2C(=O)O` [natamycin], the “concentration with anti-mycotic activity” value [1] is given as no less than 1 ppm and the “concentration necessary for effective mold, yeast, and fungus control” value [2] is given as “greater than 5 ppm”.
